Results reported in patent US20160318856A1, “Substituted Urea eIF2alpha Kinase Activators” (THE BRIGHAM AND WOMEN'S HOSPITAL, INC., priority 2013, published 2016).
Like-named read-outs stand apart in the source and are kept apart here.

What was measured:
T47D = test: cell proliferation assay, T47D; assay type: cell-based; conditions: Homo sapiens, Breast
Method: (§1) Cells were seeded in 96-well plates and maintained for 5 days in the presence of 0.5 to 20 μM of individual compound, and cell proliferation was measured by the sulforhodamine B (SRB) assay as described previously (see, for example, Palakurthi, S. S. et al. Cancer Research 2000, 60(11), 2919-2925). Briefly, at the end of a 5-day treatment, cells were fixed in 10% cold trichloroacetic acid. Cell number was estimated by measuring the remaining bound dye of sulforhodamine B after washing. The percentage of growth was calculated by using the equation: 100×[(T−T0)/(C−T0)], where T and C represent the absorbance in treated and control cultures at Day 5, and T0 at time zero, respectively. If T is less than T0, cell death has occurred and can be calculated from 100×[(T−T0)/T0].

[1] = test system: CRL-2813 human melanoma cancer cells transfected with HRI-targeting or non-targeting siRNA; test: cell proliferation (SRB) assay after HRI knockdown; assay type: cell-based; conditions: CRL-2813 cells, FIG. 10
Method: as §1
Cell proliferation is a meaningful read-out for determining the specificity of a compound as it captures both on-target and off-target effects of the compound under study. […] If these compounds specifically activate HRI and this activity is required for the inhibition of cell proliferation, then reducing the expression of HRI should blunt their effect on cell proliferation. For this purpose, expression of HRI was knocked down in CRL-2813 human melanoma (about 70% knockdown efficiency) and MCF-7 human breast cancer cells (about 90% knockdown efficiency). These two cell lines were chosen because the HRI knockdown efficiency is lower in CRL-2813 than in MCF-7 cells providing a sort of dose-response data that correlates knockdown efficiency with the resistance of cells to inhibition of cell proliferation. […] Referring to FIG. 5A, CRL-2813 human melanoma cancer cells, and (FIG. 5B) MCF-7 human breast cancer cells were transfected with HRI targeted or non-targeted siRNA, treated with the indicated concentrations of I-6p and cell proliferation was measured by SRB assay. Calculated IC50 for all four compounds tested in CRL-2813 human melanoma cancer cells and MCF-7 human breast cancer cells transfected with non-target siRNA control (NTC) or HRI is shown in FIG. 5C and FIG. 5D, respectively. The experiment was conducted in triplicate and each experiment was independently performed three times. Data are shown as Mean±S.E.M. *NTC=non-target siRNA control.
Referring to FIG. 8, CRL-2813 human melanoma cancer cells were transfected with HRI targeted or non-targeted siRNA, treated with the indicated concentrations of (A) I-14, (B) I-15, (C) III-4 and (D) III-5 and cell proliferation was measured by SRB assay. Calculated IC50 for all four compounds tested in CRL-2813 human melanoma cancer cells transfected with non-target siRNA control (NTC) or HRI is shown in (E). The experiment was conducted in triplicate and each experiment was independently performed three times. Data are shown as Mean±S.E.M. *NTC=non-target siRNA control, IC50=effective dose of drug that inhibit cell proliferation by 50%.
In general, if the affinity of compounds for their molecular target is increased this should result in higher specificity of the compounds in the cell proliferation assay. […] These five compounds, two with average and three with high potency, were tested in cell proliferation assay using CRL-2813 cells transfected with non-targeted siRNA or HRI-targeted siRNA as described above.

[2] = test system: CRL-2813 human melanoma cancer cells; test: cell proliferation (SRB) assay, CRL-2813; assay type: cell-based; conditions: Homo sapiens, CRL2813
Method in brief: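 Cells exposed 5 days to 0.5–20 μM compound, then TCA-fixed and stained with sulforhodamine B. Growth as 100×[(T−T0)/(C−T0)] from absorbance of treated, control and time-zero cultures; cell death as 100×[(T−T0)/T0] where T is below T0.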

[3] = test system: eIF2α phosphorylation (eIF2•GTP•Met-tRNAi ternary complex; HRI activation); test: surrogate dual luciferase eIF2α phosphorylation (ternary complex) assay; assay type: cell-based, human; conditions: Homo sapiens; surrogate eIF2α phosphorylation assay, Table 3; read-out: Emax (F/R)
Method in brief: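 Cell-based dual luciferase reporter: firefly luciferase behind the ATF-4 5′UTR (uORFs) and renilla luciferase behind a uORF-free 5′UTR, read with a dual glow kit. Activity given as firefly/renilla ratio normalised to DMSO wells set at 1, with a rising ratio reflecting reduced ternary complex (e.g., HRI activation).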

PC-3 = test: cell proliferation assay, PC-3; assay type: cell-based; conditions: Homo sapiens; PC-3, Prostate
Method: as §1

IC50 (T47D): 1.2 µM
fold higher IC50 values in cells transfected with HRI-targeting siRNA vs. non-targeting siRNA [1]: ~6 fold
IC50 ([2]; CRL-2813, Table 8, Mean IC50±S.E.M., read-out: IC50 of compounds): 0.69 ± 0.1 µM
IC50 ([2]; cell proliferation assay, Table 3, cell line not named, values equal CRL-2813 values of Table 8, read-out: IC50): 0.69 ± 0.1 µM
IC50 (PC-3): 2.9 µM
Structure (SMILES): O=C(Nc1cccc(C(F)(F)F)c1)NC1CCC(Oc2ccc(OC(F)(F)F)cc2)CC1 (stereo not drawn) [Compound I-17, 1-(4-(4-(trifluoromethoxy)phenoxy)cyclohexyl)-3-(3-(trifluoromethyl)phenyl)urea]
maximal fold induction [3]: 15.4
